From PMC10608790, “Structural Diversity and Biological Activity of Cyanopeptolins Produced by Nostoc edaphicum CCNP1411” (Marine Drugs, 2023)

What was measured:
[1] = test system: human cervical cancer (HeLa) cell line; assay: MTT assay on HeLa cells; format: cell-based; details: 200 µg × mL−1, 24 h
Protocol: The cytotoxic activity of the selected 17 CPs against the HeLa cervical cancer cell line (Merck KGaA, Darmstadt, Germany) was assessed with the MTT (3-(4,5-dimethylthiazole-2-yl)-2,5-diphenyltetrazolium bromide) assay according to Felczykowska et al.. HeLa cells were seeded at 4 × 10^3 cells per well in DMEM medium (Merck KGaA) supplemented with 10% (v/v) fetal bovine serum (Merck KGaA) and penicillin-streptomycin solution (1% v/v, stock solution 50 u and 0.05 mg × mL^−1, respectively; Merck KGaA). Cells were allowed to attach overnight, and then the tested compounds prepared in 1% DMSO were added. After incubation (24 h), 25 µL of MTT solution (4 mg × mL^−1; Merck KGaA) were added and then the samples were incubated for another 4 h. The formazan crystals were dissolved with 100% DMSO and absorbance was measured with Spectramax i3 (Molecular Deviecs, LLC San Jose, CA, USA). The reduction in cell viability greater than 60% was considered as significant.

chymotrypsin [2] = target: chymotrypsin (Bos taurus, UniProt P00766); parameters: method as in PMID 29949853; details: results published earlier; read-out: CHY (chymotrypsin) IC50, value marked *; cited from earlier work
elastase = elastase (Sus scrofa, UniProt P00772); assay: Elastase inhibition assay; format: biochemical; details: class symbol instead of IC50
elastase, sequence (P00772 27-266): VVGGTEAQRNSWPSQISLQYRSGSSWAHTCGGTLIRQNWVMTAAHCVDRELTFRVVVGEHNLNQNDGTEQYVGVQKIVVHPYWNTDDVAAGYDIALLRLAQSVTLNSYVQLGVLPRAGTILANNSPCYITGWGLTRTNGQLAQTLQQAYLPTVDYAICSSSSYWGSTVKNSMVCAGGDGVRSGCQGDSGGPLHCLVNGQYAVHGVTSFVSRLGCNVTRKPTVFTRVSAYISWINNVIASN
Protocol: (§1) The enzyme inhibitory activity of cyanopeptolins was assayed against trypsin [108], chymotrypsin, thrombin [109], and elastase as described before. In brief, the samples were prepared and serially diluted (1 mg, 1:1—1:10,000 times) in 1% DMSO; the standard inhibitors: aprotinin (trypsin and chymotrypsin) AEBSF 4-(2-aminoethyl)benzenesulfonyl fluoride hydrochloride (thrombin), elastatinal (elastase) (all from Sigma Aldrich; St. Louis, MO, USA) were also prepared in 1% DMSO. DMSO (1%) without the addition of the enzyme served as a negative control. All tests were carried out in triplicates. After the incubation of the assay mixtures, the absorbances were measured at 405 nm (Varioskan Flash Thermo Fisher Scientific OY, Vantaa, Finland). The reduction in enzyme activity greater than 50% was considered as significant.

chymotrypsin [3] = assay: Chymotrypsin inhibition assay; format: biochemical; details: read-out: CHY (chymotrypsin) IC50
Protocol: as §1, with “In” for “The enzyme inhibitory activity of cyanopeptolins was assayed against trypsin [108], chymotrypsin, thrombin [109], and elastase as described before. In”

thrombin = thrombin (Homo sapiens, UniProt P00734); assay: Thrombin inhibition assay; format: biochemical; details: highest concentration in the assay 45 µg × mL−1
Protocol: as §1

trypsin = target: T1, trypsin (Bos taurus, UniProt P00760); assay: Trypsin inhibition assay; format: biochemical; details: class symbol instead of IC50
T1 sequence (P00760 24-246): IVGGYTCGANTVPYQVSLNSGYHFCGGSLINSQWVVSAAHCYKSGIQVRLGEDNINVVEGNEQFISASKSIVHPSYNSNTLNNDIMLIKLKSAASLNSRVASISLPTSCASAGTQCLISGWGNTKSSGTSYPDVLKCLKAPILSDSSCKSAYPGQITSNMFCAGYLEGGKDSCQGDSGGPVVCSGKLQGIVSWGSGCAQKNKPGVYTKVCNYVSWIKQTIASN
Protocol: as §1

| SMILES | reduction in cell viability versus control [1] | IC50 (chymotrypsin [2]) | E (elastase) inhibition class (elastase) | IC50 (chymotrypsin [3]) | TRB (thrombin) inhibition class (thrombin) | TRY (trypsin) inhibition class (trypsin) |
| --- | --- | --- | --- | --- | --- | --- |
| CCCC(=O)N[C@@H](CC(=O)O)C(=O)N[C@@H]1C(=O)N[C@@H](CCCNC(=N)N)C(=O)N[C@H]2CC[C@@H](O)N(C2=O)[C@@H](Cc2ccccc2)C(=O)N(C)[C@@H](Cc2ccc(O)cc2)C(=O)N[C@@H](C(C)C)C(=O)O[C@@H]1C [CP 978, [Thr + Arg + Ahp + Phe + MeTyr + Val]Asp + BA] | 62.5% | 3.8 µM |  |  |  |  |
| CCCCCC(=O)N[C@@H](CC(=O)O)C(=O)N[C@@H]1C(=O)N[C@@H](Cc2ccccc2)C(=O)N[C@H]2CC[C@@H](O)N(C2=O)[C@@H](Cc2ccccc2)C(=O)N(C)[C@@H](Cc2ccccc2)C(=O)N[C@@H](C(C)C)C(=O)O[C@@H]1C [CP 981, [Thr + Phe + Ahp + Phe + MePhe + Val]Asp + HA] |  |  | − (not active (inhibition below 50%)) | 3.92 µM | − (not active (inhibition below 50%)) | − (not active (inhibition below 50%)) |
